Results reported in ChEMBL document CHEMBL3991601, “The target landscape of clinical kinase drugs” (Science, 2017).
Active and inactive are the calls of the source. Rule as the data show it, for most assays here: actives have a measured Kd and inactives only a lower limit.

Legend:
[1] = molecular target: Mitogen-activated protein kinase kinase kinase kinase 5 (Homo sapiens, UniProt Q9Y4K4)
[2] = molecular target: T1, Serine/threonine-protein kinase TBK1 (Homo sapiens, UniProt Q9UHD2)
T1 sequence (Q9UHD2 whole entry): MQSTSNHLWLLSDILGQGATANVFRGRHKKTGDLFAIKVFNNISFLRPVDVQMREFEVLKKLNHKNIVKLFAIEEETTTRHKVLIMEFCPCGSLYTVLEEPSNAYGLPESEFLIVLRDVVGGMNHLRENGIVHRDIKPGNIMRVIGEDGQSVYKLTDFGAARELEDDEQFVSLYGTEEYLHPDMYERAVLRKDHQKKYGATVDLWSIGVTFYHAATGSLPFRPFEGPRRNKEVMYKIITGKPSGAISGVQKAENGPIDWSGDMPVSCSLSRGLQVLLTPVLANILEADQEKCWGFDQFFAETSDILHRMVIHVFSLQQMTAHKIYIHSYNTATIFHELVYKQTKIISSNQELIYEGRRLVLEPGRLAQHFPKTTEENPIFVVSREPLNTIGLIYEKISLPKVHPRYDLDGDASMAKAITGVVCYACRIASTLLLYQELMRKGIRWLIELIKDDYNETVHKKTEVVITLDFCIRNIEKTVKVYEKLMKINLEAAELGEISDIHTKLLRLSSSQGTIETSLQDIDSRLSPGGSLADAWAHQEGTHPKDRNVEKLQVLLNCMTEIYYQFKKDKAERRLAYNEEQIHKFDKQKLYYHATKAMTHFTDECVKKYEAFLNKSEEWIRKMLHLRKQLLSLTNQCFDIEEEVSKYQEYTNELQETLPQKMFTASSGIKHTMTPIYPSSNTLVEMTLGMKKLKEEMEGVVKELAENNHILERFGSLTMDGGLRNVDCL

[3] = molecular target: Receptor-interacting serine/threonine-protein kinase 2 (Homo sapiens, UniProt O43353)
[4] = molecular target: 26S proteasome regulatory subunit 6B (Homo sapiens, UniProt P43686)
[5] = molecular target: Macrophage-stimulating protein receptor (Homo sapiens, UniProt Q04912)
[6] = molecular target: T2, NUAK family SNF1-like kinase 2 (Homo sapiens, UniProt Q9H093)
T2 sequence (Q9H093 whole entry): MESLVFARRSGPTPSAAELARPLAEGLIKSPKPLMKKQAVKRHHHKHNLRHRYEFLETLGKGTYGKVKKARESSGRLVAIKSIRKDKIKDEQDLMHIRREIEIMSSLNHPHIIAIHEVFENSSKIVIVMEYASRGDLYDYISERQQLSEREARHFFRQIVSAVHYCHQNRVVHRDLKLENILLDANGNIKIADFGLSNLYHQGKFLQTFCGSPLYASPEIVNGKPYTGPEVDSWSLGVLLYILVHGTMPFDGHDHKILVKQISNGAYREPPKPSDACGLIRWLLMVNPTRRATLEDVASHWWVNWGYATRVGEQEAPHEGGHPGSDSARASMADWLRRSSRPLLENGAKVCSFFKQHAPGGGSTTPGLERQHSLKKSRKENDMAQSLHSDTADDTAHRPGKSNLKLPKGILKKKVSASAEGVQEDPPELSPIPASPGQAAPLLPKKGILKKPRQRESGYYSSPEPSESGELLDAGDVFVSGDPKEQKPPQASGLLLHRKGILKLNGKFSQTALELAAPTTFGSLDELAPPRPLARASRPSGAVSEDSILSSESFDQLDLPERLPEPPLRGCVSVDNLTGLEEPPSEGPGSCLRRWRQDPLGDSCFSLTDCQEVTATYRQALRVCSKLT

[7] = molecular target: T3, Mitogen-activated protein kinase kinase kinase kinase 2 (Homo sapiens, UniProt Q12851)
T3 sequence (Q12851 whole entry): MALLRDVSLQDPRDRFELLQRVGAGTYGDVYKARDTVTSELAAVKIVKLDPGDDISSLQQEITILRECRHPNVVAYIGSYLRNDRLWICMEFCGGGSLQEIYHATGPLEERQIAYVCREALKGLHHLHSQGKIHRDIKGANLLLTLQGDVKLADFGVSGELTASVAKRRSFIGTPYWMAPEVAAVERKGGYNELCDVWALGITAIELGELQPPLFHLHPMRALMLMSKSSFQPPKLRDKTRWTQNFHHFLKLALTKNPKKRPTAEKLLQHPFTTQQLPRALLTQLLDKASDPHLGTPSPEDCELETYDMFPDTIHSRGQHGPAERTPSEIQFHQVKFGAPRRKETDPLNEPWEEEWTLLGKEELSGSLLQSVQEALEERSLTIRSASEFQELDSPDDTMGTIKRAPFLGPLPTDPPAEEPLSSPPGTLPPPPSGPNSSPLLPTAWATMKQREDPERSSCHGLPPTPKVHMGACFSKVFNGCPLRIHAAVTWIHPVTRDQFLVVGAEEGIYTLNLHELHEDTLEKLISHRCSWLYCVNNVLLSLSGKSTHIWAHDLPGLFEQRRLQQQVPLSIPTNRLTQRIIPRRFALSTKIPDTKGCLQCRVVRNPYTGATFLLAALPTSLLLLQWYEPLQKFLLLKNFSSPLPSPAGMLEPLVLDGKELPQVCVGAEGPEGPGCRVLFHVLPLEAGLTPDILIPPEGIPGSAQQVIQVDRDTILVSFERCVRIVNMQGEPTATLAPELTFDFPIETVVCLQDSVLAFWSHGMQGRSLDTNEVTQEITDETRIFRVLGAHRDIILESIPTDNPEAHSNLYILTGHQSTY
Also: in the data inactive means no Kd found up to 30 µM.

Sequence of Mitogen-activated protein kinase kinase kinase kinase 5 (Q9Y4K4 whole entry): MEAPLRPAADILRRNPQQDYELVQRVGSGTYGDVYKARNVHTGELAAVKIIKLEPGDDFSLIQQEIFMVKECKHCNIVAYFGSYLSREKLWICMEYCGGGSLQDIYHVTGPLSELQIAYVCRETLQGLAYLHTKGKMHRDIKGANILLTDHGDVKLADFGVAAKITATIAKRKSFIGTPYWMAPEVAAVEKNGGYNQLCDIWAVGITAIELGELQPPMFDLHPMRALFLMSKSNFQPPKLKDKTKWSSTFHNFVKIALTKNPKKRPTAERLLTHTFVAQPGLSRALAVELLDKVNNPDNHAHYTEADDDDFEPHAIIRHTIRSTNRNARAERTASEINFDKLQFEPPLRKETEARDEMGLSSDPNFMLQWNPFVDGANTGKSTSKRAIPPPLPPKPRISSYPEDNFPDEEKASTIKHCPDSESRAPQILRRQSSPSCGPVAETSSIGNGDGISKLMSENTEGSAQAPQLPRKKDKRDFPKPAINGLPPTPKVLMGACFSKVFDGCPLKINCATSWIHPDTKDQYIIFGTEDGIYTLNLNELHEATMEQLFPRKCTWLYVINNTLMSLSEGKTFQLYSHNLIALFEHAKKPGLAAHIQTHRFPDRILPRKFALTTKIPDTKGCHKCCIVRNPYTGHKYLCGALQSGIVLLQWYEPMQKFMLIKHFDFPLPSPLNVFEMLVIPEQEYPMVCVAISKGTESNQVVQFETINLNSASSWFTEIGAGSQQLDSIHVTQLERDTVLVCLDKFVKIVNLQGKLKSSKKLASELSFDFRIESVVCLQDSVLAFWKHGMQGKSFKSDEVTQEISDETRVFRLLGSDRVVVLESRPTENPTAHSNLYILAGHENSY
Sequence of 26S proteasome regulatory subunit 6B (P43686 whole entry): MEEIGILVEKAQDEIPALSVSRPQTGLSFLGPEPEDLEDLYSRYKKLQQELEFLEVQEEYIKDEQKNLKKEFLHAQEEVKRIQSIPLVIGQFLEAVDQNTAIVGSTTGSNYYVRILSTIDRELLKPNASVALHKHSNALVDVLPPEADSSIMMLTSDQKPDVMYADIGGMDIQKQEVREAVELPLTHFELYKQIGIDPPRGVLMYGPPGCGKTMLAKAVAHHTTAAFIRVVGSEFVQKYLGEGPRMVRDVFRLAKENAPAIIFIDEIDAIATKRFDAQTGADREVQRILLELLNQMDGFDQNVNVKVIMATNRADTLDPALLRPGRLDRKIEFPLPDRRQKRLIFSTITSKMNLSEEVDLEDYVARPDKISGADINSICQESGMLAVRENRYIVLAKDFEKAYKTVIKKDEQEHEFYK
Sequence of Receptor-interacting serine/threonine-protein kinase 2 (O43353 whole entry): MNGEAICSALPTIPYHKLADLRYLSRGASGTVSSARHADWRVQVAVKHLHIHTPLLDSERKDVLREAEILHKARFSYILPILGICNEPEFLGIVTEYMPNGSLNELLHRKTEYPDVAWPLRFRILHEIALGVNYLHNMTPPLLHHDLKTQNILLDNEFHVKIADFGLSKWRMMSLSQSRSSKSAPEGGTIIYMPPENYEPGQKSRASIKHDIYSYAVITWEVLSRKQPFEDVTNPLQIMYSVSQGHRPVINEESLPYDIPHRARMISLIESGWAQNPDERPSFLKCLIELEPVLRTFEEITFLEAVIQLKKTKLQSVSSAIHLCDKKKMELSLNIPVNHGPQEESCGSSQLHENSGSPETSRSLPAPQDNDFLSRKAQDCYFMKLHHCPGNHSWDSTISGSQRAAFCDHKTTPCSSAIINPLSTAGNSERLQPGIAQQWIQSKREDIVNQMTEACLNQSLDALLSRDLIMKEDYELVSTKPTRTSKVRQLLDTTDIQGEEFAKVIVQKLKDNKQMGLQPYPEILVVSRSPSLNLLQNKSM
Sequence of Macrophage-stimulating protein receptor (Q04912 25-304 limits assumed): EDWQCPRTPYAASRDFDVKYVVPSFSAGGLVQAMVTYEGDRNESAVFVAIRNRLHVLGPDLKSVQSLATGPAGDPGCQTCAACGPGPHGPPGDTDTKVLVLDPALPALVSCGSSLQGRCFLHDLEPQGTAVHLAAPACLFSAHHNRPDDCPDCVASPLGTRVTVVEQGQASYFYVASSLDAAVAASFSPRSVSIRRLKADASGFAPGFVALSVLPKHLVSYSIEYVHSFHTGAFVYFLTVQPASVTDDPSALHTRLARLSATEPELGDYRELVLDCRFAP
Sequence of Macrophage-stimulating protein receptor (Q04912 310-1400 limits assumed): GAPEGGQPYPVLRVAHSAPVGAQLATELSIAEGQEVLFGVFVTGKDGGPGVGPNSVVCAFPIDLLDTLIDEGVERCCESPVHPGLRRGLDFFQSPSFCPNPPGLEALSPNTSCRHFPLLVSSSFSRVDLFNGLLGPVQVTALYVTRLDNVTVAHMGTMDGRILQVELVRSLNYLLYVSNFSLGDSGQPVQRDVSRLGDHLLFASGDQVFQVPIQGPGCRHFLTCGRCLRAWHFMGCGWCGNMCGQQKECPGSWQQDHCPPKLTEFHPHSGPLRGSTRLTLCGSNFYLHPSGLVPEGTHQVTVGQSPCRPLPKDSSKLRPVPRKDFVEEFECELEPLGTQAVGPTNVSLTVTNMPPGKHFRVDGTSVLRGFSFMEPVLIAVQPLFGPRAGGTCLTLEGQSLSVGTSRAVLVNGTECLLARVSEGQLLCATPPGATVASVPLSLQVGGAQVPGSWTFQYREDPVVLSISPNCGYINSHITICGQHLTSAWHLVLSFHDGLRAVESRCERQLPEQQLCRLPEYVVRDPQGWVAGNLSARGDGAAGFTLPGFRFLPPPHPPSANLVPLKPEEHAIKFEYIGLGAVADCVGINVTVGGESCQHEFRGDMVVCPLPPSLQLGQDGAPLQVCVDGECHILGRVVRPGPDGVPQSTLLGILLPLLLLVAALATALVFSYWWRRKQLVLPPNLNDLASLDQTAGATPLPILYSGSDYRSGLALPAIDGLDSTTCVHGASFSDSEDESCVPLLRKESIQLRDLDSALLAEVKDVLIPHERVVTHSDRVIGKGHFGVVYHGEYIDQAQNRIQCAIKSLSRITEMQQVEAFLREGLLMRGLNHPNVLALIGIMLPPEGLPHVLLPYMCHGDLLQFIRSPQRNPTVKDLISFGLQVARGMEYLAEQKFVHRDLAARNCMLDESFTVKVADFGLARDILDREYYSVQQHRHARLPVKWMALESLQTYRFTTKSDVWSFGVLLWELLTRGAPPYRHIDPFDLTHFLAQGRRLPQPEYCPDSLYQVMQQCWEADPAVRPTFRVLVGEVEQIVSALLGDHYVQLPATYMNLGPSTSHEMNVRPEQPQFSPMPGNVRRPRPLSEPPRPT

Row | SMILES | Kd [1] | Kd [2] | Kd [3] | Kd [4] | Kd [5] | Kd [6] | Kd [7]
1 | CN1CCN(CCOc2cc(OC3CCOCC3)c3c(Nc4c(Cl)ccc5c4OCO5)ncnc3c2)CC1 [SARACATINIB] | 27.1 µM | > 30 µM (inactive) | 0.002 µM (active) | > 30 µM (inactive) | > 30 µM (inactive) | > 30 µM (inactive) | > 30 µM (inactive)
2 | CO[C@H]1C[C@@H]2CC[C@@H](C)[C@@](O)(O2)C(=O)C(=O)N2CCCC[C@H]2C(=O)O[C@H]([C@H](C)C[C@@H]2CC[C@@H](OC(=O)C(C)(CO)CO)[C@H](OC)C2)CC(=O)[C@H](C)/C=C(\C)[C@@H](O)[C@@H](OC)C(=O)[C@H](C)C[C@H](C)/C=C/C=C/C=C/1C [TEMSIROLIMUS] | > 30 µM (inactive) | > 30 µM (inactive) | > 30 µM (inactive) | > 30 µM (inactive) | > 30 µM (inactive) | > 30 µM (inactive) | > 30 µM (inactive)
3 | COc1cc2c(Nc3ccc(Cl)c(Cl)c3F)ncnc2cc1OC[C@@H]1C[C@@H]2CN(C)C[C@@H]2C1 [TESEVATINIB] | 0.908 µM (active) | > 30 µM (inactive) | 0.033 µM (active) | > 30 µM (inactive) | > 30 µM (inactive) | > 30 µM (inactive) | > 30 µM (inactive)
4 | O=C(Cc1ccc(-c2ccc(OCCN3CCOCC3)cc2)cn1)NCc1ccccc1 [TIRBANIBULIN] | > 30 µM (inactive) | > 30 µM (inactive) | > 30 µM (inactive) | > 30 µM (inactive) | > 30 µM (inactive) | > 30 µM (inactive) | > 30 µM (inactive)
5 | Cc1cc(Nc2ncnc3ccc(NC4=NC(C)(C)CO4)cc23)ccc1Oc1ccn2ncnc2c1 [TUCATINIB] | > 30 µM (inactive) | > 30 µM (inactive) | > 30 µM (inactive) | > 30 µM (inactive) | > 30 µM (inactive) | > 30 µM (inactive) | > 30 µM (inactive)
6 | Cn1ncc(Cl)c1-c1cc(C(=O)N[C@H](CN)Cc2ccc(F)c(F)c2)oc1Cl [UPROSERTIB] | > 30 µM (inactive) | > 30 µM (inactive) | > 30 µM (inactive) | > 30 µM (inactive) | > 30 µM (inactive) | > 30 µM (inactive) | > 30 µM (inactive)
7 | CN1C/C=C/CCOc2cccc(c2)-c2ccnc(n2)Nc2cccc(c2)C1 [ZOTIRACICLIB] | 5.09 µM (active) | > 30 µM (inactive) | > 30 µM (inactive) | > 30 µM (inactive) | > 30 µM (inactive) | > 30 µM (inactive) | 1.36 µM (active)

Continued, values first:

Row | Kd [1] | Kd [2] | Kd [3] | Kd [4] | Kd [5] | Kd [6] | Kd [7] | SMILES
8 | > 30 µM (inactive) | > 30 µM (inactive) | > 30 µM (inactive) | 0.005 µM | > 30 µM (inactive) | > 30 µM (inactive) | > 30 µM (inactive) | Cn1cc(-c2cnn3c(N)c(Br)c([C@@H]4CCCNC4)nc23)cn1 [SCH-900776]
9 | 5.36 µM (active) | 2.76 µM (active) | > 30 µM (inactive) | > 30 µM (inactive) | > 30 µM (inactive) | 0.705 µM (active) | > 30 µM (inactive) | CCS(=O)(=O)c1cccc(-c2cc(C(=O)NC3CCN(C)CC3)c(C)c3[nH]c4ncc(C)cc4c23)c1 [TAK-901]
10 | 0.551 µM (active) | 1.12 µM (active) | > 30 µM (inactive) | > 30 µM (inactive) | 2.37 µM (active) | > 30 µM (inactive) | 0.352 µM (active) | CC(C)c1cc(CNc2nc(Nc3cc(C4CC4)[nH]n3)cc(N3CCN(C)CC3)n2)on1 [XL-228]
11 | > 30 µM (inactive) | > 30 µM (inactive) | > 30 µM (inactive) | > 30 µM (inactive) | > 30 µM (inactive) | > 30 µM (inactive) | > 30 µM (inactive) | C[C@@H](N)c1ccc(C(=O)Nc2ccnc3[nH]ccc23)cc1 [Y-39983]
